Source: article PMC11224403, “Des-acyl ghrelin reduces alcohol intake and alcohol-induced reward in rodents” (Translational Psychiatry, 2024)
No end group written: not given here.

Tests used:
CB1 receptor = experiment: Aquoscreen receptor activity assay, CB1; type: cell-based, human; conditions: 60 µM JWH-018, also at 7.5 µM; luminescence
male mice = experiment: Locomotor activity test, alcohol-induced stimulation and DAG per se, mice; type: in vivo, NMRI mice
Text: (§1) Male and female Rcc Han Wistar rats (8–12 weeks old at arrival; Envigo, Horst, Netherlands) were used for the alcohol drinking and locomotor activity experiments as they drink alcohol to intoxicating levels. For in vivo microdialysis studies male Wistar rats (Charles River, Calco, Italy) were used as they display robust dopamine levels in NAc shell after alcohol injection. […] All rodents were allowed to habituate to the animal facility at least one week before they entered an experiment. […] The sample sizes of each experiment were based on previous experience in which statistical significance has been detected. The person who conducted the experiments, and analyzed the collected data was aware of the treatment allocation. Only preset exclusion criteria were used when analyzing the data obtained in attempts to exclude confounding factors in analyzing data. In the alcohol drinking experiments leaking bottles and low alcohol consumption (<3.0 g/kg for males; <3.5 g/kg for females) were preset exclusion criteria. The preset exclusion criterion in the ex vivo HPLC-EC, ELISA, and recombinant cell line experiments was contamination of the sample. Misplaced probes, technical difficulties, and damages to the surgery area were preset exclusion criteria for the in vivo microdialysis experiment. Intra-cage male aggression was the preset exclusion criterion for the locomotor activity and CPP experiments. To minimize tentative confounding factors, the order of treatments was stratified, with treatments being mixed for each animal cage and for each apparatus used as well as balancing the alcohol intake between future treatment groups.
Alcohol was in the behavioral and neurochemical tests injected (intraperitoneally, IP) 5 min before the test.
Locomotor activity tests were conducted in ventilated and dim-lit (4 lux) open field arenas (420 × 420 × 200 mm; Med Associates Inc; Georgia, Vermont, USA). Infra-red beams detected distance traveled, number of jumps, vertical counts, average velocity, stereotypic counts, number of inner zone entries, and time spent in the inner/outer zones of each animal.
In the first test, after 60 min of habituation, male (n = 24) or female (n = 24) rats were injected with vehicle or DAG (0.5, 1.0, or 2.0 mg/kg). 15 min later the activity was monitored for another 60 min. In the second locomotor activity experiment, male mice (n = 32) were allowed to habituate for 60 min. After that, they were injected with vehicle or DAG (0.25, 0.5, or 1.0 mg/kg). After 15 min the activity was monitored for another 60 min.
Therefore, male mice were (n = 32) injected with DAG (1.0 mg/kg) or vehicle 15 min before alcohol or vehicle. The activity registration started 5 min later and was recorded for an additional 60 min. Identical locomotor activity experiments were conducted in new male mice (n = 32), where a lower dose of DAG (0.5 mg/kg) was combined with alcohol.
(§2) The data from drinking experiments were analyzed by unpaired t-test or repeated two-way ANOVA. A two-tailed unpaired t-test analyzed the ELISA, ex vivo HPLC-EC, and cFOS data. In addition, the Pearson test correlated the serum levels and the mean values of alcohol intake in rats. A one-way ANOVA with Bonferroni post hoc tests and unpaired t-test analyzed the locomotor activity and CPP data, respectively. The in vivo microdialysis experiments were evaluated by a repeated two-way ANOVA followed by the Bonferroni post hoc test.

dopamine in NAc shell = experiment: In vivo microdialysis, dopamine release in NAc shell; parameters: species or system Wistar rats; conditions: male rats (methods), alcohol 2 g/kg IP, n = 8 per group
Text: as §1, with “groups. […]” for “groups.”
as §2, with “In addition, the Pearson test correlated the serum levels and the mean values of alcohol intake in rats.” left out

SERT = experiment: Transporter inhibition in recombinant cell line, SERT; type: cell-based, human; conditions: cocaine at 12.5 µM and 6.25 µM (top concentration 50 µM); 3 h, fluorescence
[1] = system: human transporter of dopamine (DAT); experiment: Transporter inhibition in recombinant cell line (neurotransmitter transporter uptake assay), DAT; type: cell-based; conditions: cocaine at such concentration (12.5 µM and 6.25 µM); CHO-K1 cells, 3 h, fluorescence
NET = experiment: Transporter inhibition in recombinant cell line, NET; type: cell-based, human; conditions: cocaine at 12.5 µM and 6.25 µM (top concentration 50 µM); 3 h, fluorescence
[2] = system: high alcohol-consuming mice; conditions: central infusion, ref [47]; cited from earlier work
[3] = system: alcohol-related responses; conditions: preclinical and clinical studies, ref [6–18]; cited from earlier work
Text: Alcohol use disorder (AUD) is a major public health problem with high morbidity and mortality. Its development is complex and the dopaminergic neurons from the ventral tegmental area (VTA) to the nucleus accumbens (NAc) have gained extra interest as they mediate alcohol-induced reward (for review see [2, 3]). Various biological systems participate in the ability of alcohol to interact with these dopamine neurons, and gut-brain peptides have been implied as important modulators (for review see [4]). One of these peptides is ghrelin (i.e., acyl-ghrelin, the acylated form of ghrelin [ ...

[4] = system: memory function via hippocampal mechanisms; conditions: ref [50], [51]; cited from earlier work

With `CCCCCn1cc(C(=O)c2cccc3ccccc23)c2ccccc21` [JWH-018] the “effect on target receptor CB1” value (CB1 receptor) was “full target receptor inhibition”.
For `CCO` [alcohol], the “locomotor stimulation by alcohol” value (male mice; alcohol 1.75 g/kg IP (experiment with DAG 0.5 mg/kg)) was “hyperlocomotion after alcohol (P = 0.0225)”, the “locomotor stimulation by alcohol” value (male mice; alcohol 1.75 g/kg IP vs vehicle, n = 8 per group (experiment with DAG 1 mg/kg)) was “caused a locomotor simulation (P = 0.0136)” and the “dopamine in NAc shell, alcohol vs vehicle” value (dopamine in NAc shell) was “elevated dopamine in NAc shell (80 min P < 0.001, 160 min P = 0.0011, 180 min P = 0.0037, 200 min P < 0.0001)”.
With `COC(=O)[C@H]1[C@@H](OC(=O)c2ccccc2)C[C@@H]2CC[C@H]1N2C` [cocaine] the “inhibition of SERT” value (SERT) was “full NET and SERT inhibition at 12.5 µM and 6.25 µM”, the “inhibition of DAT, share of full transporter inhibition” value [1] was 70–80% and the “inhibition of NET” value (NET) was “full NET and SERT inhibition at 12.5 µM and 6.25 µM”.
In the case of “LEAP2: recently discovered inverse GHSR agonist (MTPFWRGVSLRPIGASCRDDSECITRLCRKRRCSLSVAQE; ends and bridges not checked; cysteine pairing not given here; UniProt Q969E1 38-77, looked up)”, the alcohol intake [2] is listed as “reduces alcohol intake in high alcohol-consuming mice after its central infusion”.
For “ghrelin (GSSFLSPEHQRVQQRKESKKPPAKLQPR; ends and bridges not checked; also: octanoylated, position not given here; UniProt Q9UBU3 24-51, looked up) [orexigenic peptide, the acylated form of ghrelin]”, the alcohol-related responses [3] is listed as “enhances” and the memory function [4] is listed as “enhance memory function via hippocampal mechanisms”.
